Results on 16 compounds are retold here after ChEMBL document CHEMBL1135839, “Design and synthesis of novel benzofurans as a new class of antifungal agents targeting fungal N-myristoyltransferase. Part 2” (Bioorg Med Chem Lett, 2002).

The target of data set [1] is Candida albicans N-myristoyltransferase (Candida albicans). Put plainly: Inhibitory activity against Candida albicans N-Myristoyltransferase (CaNmt) assessed as inhibitory concentration using substrate peptide and myristotyl-CoA at 0.5 uM.
Data set [2] in a line: Plasma concentration expressed as area under curve after intravenous administration was determined in rat. Format: ADME, organism-based.
The target of data set [3] is T1, Peptide N-myristoyltransferase (Homo sapiens, UniProt P30419+O60551).
T1 sequence (P30419 whole entry): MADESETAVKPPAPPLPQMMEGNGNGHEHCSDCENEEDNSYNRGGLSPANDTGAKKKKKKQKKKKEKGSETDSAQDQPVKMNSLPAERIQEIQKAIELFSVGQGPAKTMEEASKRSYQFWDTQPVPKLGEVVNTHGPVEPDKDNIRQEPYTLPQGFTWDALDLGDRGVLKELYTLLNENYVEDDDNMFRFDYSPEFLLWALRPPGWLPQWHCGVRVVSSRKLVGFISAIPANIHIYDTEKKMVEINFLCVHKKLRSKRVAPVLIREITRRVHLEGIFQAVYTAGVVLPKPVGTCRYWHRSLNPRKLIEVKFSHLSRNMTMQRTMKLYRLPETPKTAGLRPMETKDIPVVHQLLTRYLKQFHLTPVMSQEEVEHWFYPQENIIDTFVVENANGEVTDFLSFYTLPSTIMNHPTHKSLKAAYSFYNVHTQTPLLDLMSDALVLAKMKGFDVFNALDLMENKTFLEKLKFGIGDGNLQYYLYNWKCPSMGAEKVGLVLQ
T1 sequence (O60551 whole entry): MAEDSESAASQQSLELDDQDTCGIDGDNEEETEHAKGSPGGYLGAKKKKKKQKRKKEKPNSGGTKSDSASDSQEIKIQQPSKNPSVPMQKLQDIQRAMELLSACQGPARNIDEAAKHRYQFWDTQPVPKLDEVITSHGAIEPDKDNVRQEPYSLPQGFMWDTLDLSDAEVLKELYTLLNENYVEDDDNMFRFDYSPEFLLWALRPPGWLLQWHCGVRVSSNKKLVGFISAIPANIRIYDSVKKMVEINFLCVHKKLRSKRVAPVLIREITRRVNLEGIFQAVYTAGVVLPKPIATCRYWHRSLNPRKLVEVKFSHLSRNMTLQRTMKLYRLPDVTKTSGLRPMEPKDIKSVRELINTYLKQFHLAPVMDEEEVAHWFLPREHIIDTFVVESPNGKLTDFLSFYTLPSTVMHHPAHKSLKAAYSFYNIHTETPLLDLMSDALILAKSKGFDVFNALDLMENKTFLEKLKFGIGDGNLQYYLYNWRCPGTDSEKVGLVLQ
Put plainly: Inhibitory activity against human N-Myristoyltransferase (HsNmt) assessed as inhibitory concentration using substrate peptide and myristotyl-CoA at 0.5 uM. Format: protein assay.

For data set [4], the system named is Candida albicans. Put plainly: Antifungal activity expressed as inhibitory concentration against Candida albicans CY1002 in calf serum. Format: functional, organism-based.
Data set [5] in a line: Half life of compound determined after intravenous administration to rat. Format: ADME, organism-based. Conditions: in vivo.
The subject of data set [6] is Candida albicans. Put plainly: Antifungal activity expressed as inhibitory concentration against Candida albicans CY1002 in YNBPB medium. Format: functional, organism-based.
Another data set concerns Rattus norvegicus. Put plainly: Effective dose required against Candida albicans for 50% survival on intravenous administration in rats. In kind it is functional.
Data set [7] relates to Candida albicans. Put plainly: Antifungal activity expressed as inhibitory concentration against Candida albicans in calf serum. In kind it is functional, organism-based.
Data set [8] addresses Candida albicans N-myristoyltransferase (Candida albicans). Put plainly: Inhibitory activity against Candida albicans (Nmt) assessed as inhibitory concentration (nM).
The target is the same in data set [9]. Put plainly: Inhibitory activity against Candida albicans (Nmt) assessed as inhibitory concentration.
Data set [10] has the same target. Put plainly: Inhibitory activity against Candida albicans N-Myristoyltransferase (Nmt).

The term IC50 denotes the concentration needed to halve the response being measured. What is called AUC is concentration integrated over time. High values mean high exposure, low ones low exposure. A word on the half-life: it is how long it takes for the measured level to halve. A higher half-life goes with slow loss. As for `Cc1c(COc2ccc(Cl)cc2)oc2cccc(OCCCNCc3cccnc3)c12`, the IC50 was 73 nM in [1], > 110000 nM in data set [3], 6600 nM in the data set on Candida albicans [4] and 920 nM with Candida albicans [6]. For the same compound, in data set [2], the AUC was 330 ng·h/mL. The compound further showed a half-life in data set [5] of 2.4 h.
The ED50 is the midpoint of the dose-response relation. A low value points to an effect at a small dose. For the compound `Cc1c(COc2ccc(Br)cc2F)oc2cccc(OCCCNCc3cccnc3)c12`, the IC50 in data set [1] is 28 nM; in [3] it was > 400000 nM; in the data set with Candida albicans [4] it was 1300 nM; with Candida albicans [6] it was 74 nM. The compound also came in with an AUC in data set [2] of 360 ng·h/mL. In data set [5], this compound showed a half-life of 3.6 h. Also, the ED50 in the data set on Rattus norvegicus is > 30 mg/kg.
On to `OC(Cn1cncn1)(Cn1cncn1)c1ccc(F)cc1F` [FLUCONAZOLE], for which, in [2], the AUC came to 19.6 ng·h/mL. For the same compound, the IC50 in the data set on Candida albicans [4] and with Candida albicans [7] was 500 nM each time. The half-life in data set [5] is 4 h.
On to `Cc1c(COc2ccc(F)cc2F)oc2cccc(OCCCNCc3cccnc3)c12`, for which the IC50 in data set [1] was 7.5 nM; in [3], > 450000 nM; with Candida albicans [4], 340 nM; in the data set with Candida albicans [6], 30 nM; in data set [8] it was 7.5 nM. In addition, the AUC in data set [2] was 420 ng·h/mL. In addition, in data set [5], the half-life was 1.6 h. Also, in the data set on Rattus norvegicus, it took a dose of 7.1 mg/kg to reach the 50% effect level (ED50).
`Cc1c(COc2ccccc2)oc2cccc(OCCCNCc3cccnc3)c12`: the IC50 was found to be 72 nM in data set [1], 77000 nM in data set [3] and 370 nM with Candida albicans [6]. In [2], this compound came in with an exposure (AUC) of 670 ng·h/mL. Besides, in data set [5], the half-life is 1.9 h.
On to `Cc1c(C(=O)Nc2ccccc2)oc2cccc(OCCCNCc3cccnc3)c12`, for which the IC50 in data set [1] was 2200 nM; in data set [3], > 480000 nM; with Candida albicans [6], 12000 nM. Moreover, the AUC in data set [2] turned out to be 240 ng·h/mL. The compound further showed a half-life in data set [5] of 0.9 h.
In the case of `Cc1c(COc2ccccc2C#N)oc2cccc(OCCCNCc3cccnc3)c12`, the IC50 in data set [1] is 17 nM; in [3], 19000 nM; in the data set on Candida albicans [4], 3300 nM; in the data set with Candida albicans [6], 1200 nM. In data set [2], this compound displayed an AUC of 280 ng·h/mL. This compound gave a half-life in [5] of 0.5 h.
Turning to `CCOC(=O)c1oc2cccc(OCCCNCc3cccnc3)c2c1C`, in data set [2], the AUC is 330 ng·h/mL. Further, the IC50 in data set [3] was > 450000 nM. For the same compound, the half-life in data set [5] is 0.4 h.
Take `Cc1c(COc2ccccc2F)oc2cccc(OCCCNCc3cccnc3)c12`: the IC50 was 8.3 nM in data set [1]; > 470000 nM in data set [3]; 600 nM in the data set with Candida albicans [4]; 40 nM in the data set with Candida albicans [6]; 8.3 nM in [9]. This compound also had an AUC in data set [2] of 560 ng·h/mL. In [5], this compound had a half-life of 1.6 h.
Take `Cc1c(COc2ccc(C#N)cc2)oc2cccc(OCCCNCc3cccnc3)c12`: the IC50 was 9.4 nM in data set [1]; > 460000 nM in data set [3]; 1400 nM in the data set with Candida albicans [4]; 9.4 nM in data set [10]; 160 nM in the data set on Candida albicans [6]. The compound further yielded an AUC in data set [2] of 340 ng·h/mL. Further, the half-life in [5] is 1.2 h.
As to `Cc1c(COc2cccc(F)c2)oc2cccc(OCCCNCc3cccnc3)c12`, the IC50 in data set [1] is 110 nM; in [3], > 110000 nM; with Candida albicans [4] it was 3300 nM; in the data set on Candida albicans [6], 110 nM. In [2], the exposure (AUC) worked out at 370 ng·h/mL. For the same compound, in data set [5], the half-life is 1.5 h.
In the case of `Cc1c(CSc2ccccc2)oc2cccc(OCCCNCc3cccnc3)c12`, the AUC in [2] worked out at 390 ng·h/mL. For the same compound, the IC50 in the data set with Candida albicans [4] came to 180000 nM; in the data set with Candida albicans [6], 11000 nM. The compound further had a half-life in [5] of 1.4 h.
Compound `Cc1c(COc2cccc(F)c2F)oc2cccc(OCCCNCc3cccnc3)c12` gave an AUC in [2] of 500 ng·h/mL. The results for the IC50 in the data set with Candida albicans [4] and with Candida albicans [6] were 570 nM and 80 nM, respectively. Further, the half-life in data set [5] is 1.9 h.
Take `Cc1c(COc2ccc(F)c(F)c2F)oc2cccc(OCCCNCc3cccnc3)c12`: in [2], the AUC came out at 330 ng·h/mL. The IC50 with Candida albicans [4] was 330 nM; in the data set on Candida albicans [6], 35 nM. The half-life in [5] is 2 h. In the data set on Rattus norvegicus, the ED50 stood at 7.1 mg/kg.
On to `Cc1c(CCc2ccccc2)oc2cccc(OCCCNCc3cccnc3)c12`, for which the IC50 was 1200 nM in data set [1], 12000 nM in data set [3], > 240000 nM in the data set with Candida albicans [4] and 13000 nM with Candida albicans [6]. The AUC in data set [2] is 290 ng·h/mL. The half-life in data set [5] is 1.1 h.
For the compound `Cc1c(COc2ccc(F)cc2)oc2cccc(OCCCNCc3cccnc3)c12`, the IC50 was 5.2 nM in [1]; 67000 nM in data set [3]; 700 nM with Candida albicans [4]; 21 nM in the data set with Candida albicans [6]; 5.2 nM in data set [8]. In data set [2], this compound showed an AUC of 340 ng·h/mL. In data set [5], this compound showed a half-life of 1.9 h.
